Assay results from BindingDB's records for doi:10.1074/jbc.M804990200 (Harvard Medical School, 2008).

Legend:
Assay in all cases: Continuous Assay
[1] = target: T1, Dihydroorotate dehydrogenase (quinone), mitochondrial (Plasmodium falciparum, UniProt Q54A96)
T1 sequence (Q54A96 whole entry): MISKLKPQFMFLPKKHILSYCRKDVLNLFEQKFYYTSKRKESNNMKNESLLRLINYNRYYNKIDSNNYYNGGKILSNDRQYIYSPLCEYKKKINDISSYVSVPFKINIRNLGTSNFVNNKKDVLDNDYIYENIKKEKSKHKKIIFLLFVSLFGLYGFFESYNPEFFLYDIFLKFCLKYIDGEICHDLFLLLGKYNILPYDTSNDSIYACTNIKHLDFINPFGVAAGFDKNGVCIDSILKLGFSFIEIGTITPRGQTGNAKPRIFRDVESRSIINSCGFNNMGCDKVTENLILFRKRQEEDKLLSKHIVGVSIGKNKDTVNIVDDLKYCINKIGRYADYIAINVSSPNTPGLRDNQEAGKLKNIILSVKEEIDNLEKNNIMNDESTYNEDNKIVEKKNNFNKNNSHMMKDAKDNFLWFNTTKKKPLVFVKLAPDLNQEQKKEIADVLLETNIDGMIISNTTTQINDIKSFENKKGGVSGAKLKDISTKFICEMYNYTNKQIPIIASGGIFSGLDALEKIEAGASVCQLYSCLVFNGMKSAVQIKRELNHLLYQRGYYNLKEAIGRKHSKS
Experimental: (§1) Assay was determined using a continuous assay.

[2] = target: Dihydroorotate dehydrogenase (quinone), mitochondrial (Homo sapiens, UniProt Q02127)
Sequence of Dihydroorotate dehydrogenase (quinone), mitochondrial (Homo sapiens, UniProt Q02127) (Q02127 whole entry): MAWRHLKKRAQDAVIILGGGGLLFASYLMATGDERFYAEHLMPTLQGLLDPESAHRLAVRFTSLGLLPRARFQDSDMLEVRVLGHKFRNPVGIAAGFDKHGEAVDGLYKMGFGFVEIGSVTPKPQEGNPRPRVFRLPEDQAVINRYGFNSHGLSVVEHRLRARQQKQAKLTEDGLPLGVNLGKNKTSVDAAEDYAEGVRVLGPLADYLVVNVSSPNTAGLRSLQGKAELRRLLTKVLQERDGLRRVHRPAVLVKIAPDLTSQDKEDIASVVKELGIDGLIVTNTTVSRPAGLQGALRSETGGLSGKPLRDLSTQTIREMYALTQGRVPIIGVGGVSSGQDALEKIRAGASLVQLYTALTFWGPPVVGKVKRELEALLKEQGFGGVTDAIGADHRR
Experimental: as §1

[3] = target: T2, Dihydroorotate dehydrogenase (quinone), mitochondrial (Plasmodium vivax (strain Salvador I), UniProt A5K1N1)
T2 sequence (A5K1N1 whole entry): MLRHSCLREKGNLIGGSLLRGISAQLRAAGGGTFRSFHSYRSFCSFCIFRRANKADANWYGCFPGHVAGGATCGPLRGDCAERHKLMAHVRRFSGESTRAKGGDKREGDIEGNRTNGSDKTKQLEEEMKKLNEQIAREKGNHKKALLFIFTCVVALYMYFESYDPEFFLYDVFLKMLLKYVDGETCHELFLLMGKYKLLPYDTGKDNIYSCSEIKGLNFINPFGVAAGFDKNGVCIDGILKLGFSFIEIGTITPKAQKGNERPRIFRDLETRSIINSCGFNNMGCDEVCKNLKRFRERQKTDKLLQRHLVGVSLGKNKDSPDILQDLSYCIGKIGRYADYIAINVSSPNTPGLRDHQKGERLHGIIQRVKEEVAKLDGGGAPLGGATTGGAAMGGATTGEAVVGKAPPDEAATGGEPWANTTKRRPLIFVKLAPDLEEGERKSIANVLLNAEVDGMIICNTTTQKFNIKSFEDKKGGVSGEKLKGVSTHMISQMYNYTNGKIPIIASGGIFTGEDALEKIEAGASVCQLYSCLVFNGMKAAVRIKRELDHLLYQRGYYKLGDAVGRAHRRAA
Experimental: as §1

[4] = target: T3, Dihydroorotate dehydrogenase (quinone), mitochondrial [100-517] (Plasmodium berghei (strain Anka), UniProt A0A509AEH5)
T3 construct: 100-517
T3 sequence (A0A509AEH5 whole entry): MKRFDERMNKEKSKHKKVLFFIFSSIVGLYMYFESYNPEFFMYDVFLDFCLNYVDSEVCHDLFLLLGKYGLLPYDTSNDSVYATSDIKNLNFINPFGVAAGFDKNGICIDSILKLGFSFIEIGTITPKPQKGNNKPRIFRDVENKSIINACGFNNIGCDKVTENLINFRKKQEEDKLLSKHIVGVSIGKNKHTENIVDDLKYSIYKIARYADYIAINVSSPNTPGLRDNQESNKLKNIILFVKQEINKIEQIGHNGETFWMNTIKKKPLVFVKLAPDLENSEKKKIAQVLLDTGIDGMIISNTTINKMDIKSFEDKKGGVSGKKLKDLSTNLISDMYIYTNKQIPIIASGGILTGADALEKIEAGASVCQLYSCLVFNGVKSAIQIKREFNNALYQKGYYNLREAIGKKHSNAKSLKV
Experimental: as §1

| Structure (SMILES) | IC50 [1] [nM] | IC50 [2] [µM] | IC50 [3] [µM] | IC50 [4] [nM] |
| --- | --- | --- | --- | --- |
| CCCNC(=O)c1ccc(-n2c(C)cc3ccccc32)s1 [US8703811, 1] | 420 | > 30 | – | – |
| Cc1ccccc1/C=C/c1cc(O)c2ccccc2n1 [US8703811, 2] | 930 | > 30 | 5.6 | 560 |
| CCCCCC1CCCc2c1nc1ccccc1c2O (centres undefined) [US8703811, 3] | 340 | > 30 | 0.51 | 110 |
| O=C(NC1CC1)c1ccc(N2CCSc3ccccc32)s1 [US8703811, 5] | 250 | – | – | – |
| CCOC(=O)c1[nH]c(C)c(Cc2ccc(OCC)cc2)c1C [US8703811, 6] | 83 | > 30 | – | 60 |
